What was measured:
[1] = system: TERT, TPP1, TERF1, TERF2, TINF2, POT1; assay: qPCR primer assays of telomere complex genes in skin fibroblasts AG07999; assay type: cell-based, human; conditions: 24 hours; 1 uM idebenone, 0.001% coffee cherry; FIG. 7
Description: Cell cultures: A human skin fibroblast cell culture was obtained through the Coriell Cell Repository from the National Institute on Aging Cell Repository. The culture, AG07999, was established from a biopsy of a person. Culture media: Cells were grown in Minimal Essential Medium supplemented with 10% fetal bovine serum, 2 mM L-glutamine, 2 mM Glutamax I. […] All cultures were incubated at 37° C. with 5% CO2 in a humidified chamber. Seeding of cells: […] Experimental phase: […] On Day 5 after 24 hours of exposure to test conditions, the cells were isolated and the RNA isolated using the RT^2q PCR-grade RNA isolation kit (Superarray Bioscience Corporation). […] The RNA was quantified and examined for purity using the 260/280 nm read method in a μQuant spectrophotometer before use in the array. Performance of the qPCR Primer Assays: […] The assay was performed in compliance with manufacturer's guidelines and by recommended manufacturer's protocol as can be found on the World Wide Web at superarray.com/Manual/realtimePCR.pdf. […] Any values out of range of the threshold cycles or inconsistent within the assay were discarded from analysis. qPCR Primer Assay results: The results from assays were determined using the delta CT method, which uses comparisons of control genes and threshold cycles of genes of interest to generate relative expression values (this process is handled by the GeneX package).

Drosophila Melanogaster = assay: Drosophila survival/longevity after antioxidant media; assay type: in vivo
Description: Drosophila cultures: A wingless variant of Drosophila Melanogaster was purchased from Carolina Biological Supply. These flies were fed nutrient media (Formula 4-24) and experimental flies were collected within 18 hours after hatching to ensure the females were virgin. Culture media: Flies were given a combination of the following: 1) Formula 4-24 without blue coloring for breeding and post exposure to antioxidants. […] 4) 20% sucrose solution on filter paper following AOX incubation to serve as a low nutrient media and known lifespan shortening agent. […] The flies remain in the antioxidant media for 12 days. […] All the flies are examined daily and media changed as required until all the flies have died. The date (post 12 day antioxidant incubation) is recorded. Lifespan results: The cumulative average lifespan of all flies for each group are then computed and compared against the cumulative average of the control (untreated) flies to determine if the Antioxidants increase lifespan. The average lifespan increase is separated by sex as well as combined for both sexes. This lifespan extension is expressed as a percent increase or decrease over control values. Culture media: […] Experimental phase: […] Lifespan results: The cumulative average lifespan of all flies for each group are then computed and compared against the cumulative average of the control (untreated) flies to determine if the antioxidants increase lifespan. The average lifespan increase is separated by sex as well as combined for both sexes.

[2] = 0.01% antioxidant in media from hatching, antioxidant alone
[3] = 0.1% antioxidant in media from hatching, antioxidant alone
[4] = 1% antioxidant in media from hatching, antioxidant alone
[5] = 1% antioxidant media 12 days, then 20% Sucrose
[6] = 1% antioxidant media 12 days, then 20% Sucrose, vs 20% Sucrose
[7] = 1% antioxidant media 12 days, then H2O2 media
[8] = 1% antioxidant media 12 days, then H2O2 media, vs H2O2

COC1=C(OC)C(=O)C(CCCCCCCCCCO)=C(C)C1=O [Idebenone, 6-(10-hydroxydecyl)-2,3-dimethoxy-5-methyl-1,4-benzoquin-one]
TERF1 expression level [1]: effected | TERF2 expression level [1]: effected | average lifespan, Average of Both (Drosophila Melanogaster; [2]): 23.4 days | average lifespan, FEMALE (Drosophila Melanogaster; [2]): 23.4 days | average lifespan, Average of Both (Drosophila Melanogaster; [3]): 10.2 days | average lifespan, FEMALE (Drosophila Melanogaster; [3]): 10.2 days | average lifespan, Average of Both (Drosophila Melanogaster; [4]): 10 days | average lifespan, FEMALE (Drosophila Melanogaster; [4]): 12.4 days | average lifespan, MALE (Drosophila Melanogaster; [4]): 8.1 days | average lifespan, Average of Both (Drosophila Melanogaster; [5]): 11.89 days | average lifespan, FEMALE (Drosophila Melanogaster; [5]): 11.7 days | average lifespan, MALE (Drosophila Melanogaster; [5]): 12.11 days | % Change of lifespan over control, Average of Both (Drosophila Melanogaster; [6]): +5% | % Change of lifespan over control, FEMALE (Drosophila Melanogaster; [6]): −4% | % Change of lifespan over control, MALE (Drosophila Melanogaster; [6]): +24% | average lifespan, Average of Both (Drosophila Melanogaster; [7]): 5.75 days | average lifespan, FEMALE (Drosophila Melanogaster; [7]): 5.50 days | average lifespan, MALE (Drosophila Melanogaster; [7]): 5.32 days | % Change of lifespan over control, Average of Both (Drosophila Melanogaster; [8]): +8% | % Change of lifespan over control, FEMALE (Drosophila Melanogaster; [8]): −7% | % Change of lifespan over control, MALE (Drosophila Melanogaster; [8]): +8%
